Experimental data as given in patent US20120016010A1, “RNA Interference Mediated Inhibition of BTB and CNC Homology 1, Basic Leucine Zipper Transcription Factor 1 (BACH1) Gene Expression Using Short Interfering Nucleic Acid (siNA)” (Merck Sharp & Dohme Corp, priority 2009, published 2012).
[invAb] = inverted abasic unit; d = 2'-deoxy (DNA); m = 2'-O-methyl; r = 2'-OH (RNA); f = 2'-fluoro

Key:
Bach1 mRNA [1] = assay: Initial screen: Bach1 mRNA knock-down in human A549 cells (96-well transfection, quantitative RT-PCR); format: cell-based; conditions: Bach1 mRNA, 10 nM siNA, human A549 cells, n = 2, mean ± S.D., normalized to GAPDH and non-targeting control, 24 hrs post-transfection
Bach1 mRNA [2] = assay: Initial screen: Bach1 mRNA knock-down in mouse NIH 3T3 cells (96-well transfection, quantitative RT-PCR); format: cell-based; conditions: mouse NIH3T3 cells, n = 2, 24 hrs post-transfection, protocol 10 nM siNA
[3] = system: cigarette smoke-induced lung destruction; conditions: Sussan et al (2009); cited from earlier work
[4] = system: Heme Oxygenase-1 (HO-1) protein; assay: HO-1 protein expression by Western Blot in airway epithelial cells from a COPD subject; format: cell-based, human; conditions: FIG. 13, positive controls, 18-hour treatment period
Method: Human airway epithelial cells were obtained by bronchoscopy from a subject with COPD (35-pack years). The cells were seeded at a density of 1×10^5 cells in a 24-well plate and incubated at 37° C. and 5% CO2 overnight. […] Whole cell lysates were created to detect Heme Oxygenase-1 (HO-1) protein expression via Western Blot.
Whole cell lysates were quantified and 5 micrograms of protein per lane were loaded into a 12.5% Tris-HCL gel. A 1:5000 dilution of Anti-Human Heme Oxygenase-1 polyclonal antibody (Assay Designs) was used to detect HO-1 protein levels. The blot was stripped and reprobed with a beta actin antibody to confirm equal loading.

Molecule | % KD (Bach1 mRNA [1]) | % KD (Bach1 mRNA [2]) | lung oxidative stress markers, alveolar cell apoptosis and the subsequent lung destruction, and pulmonary hypertension [3] | HO-1 protein expression [4]
29982-DC: Bach1 siNA duplex, target site 1752 (mouse); sense B cAuucAAuGcccAAcGGAu TTB (SEQ 113); antisense AUCcGuuGGGcAuuGAAuGUU (SEQ 114) (sense CAUUCAAUGCCCAACGGAUTT; antisense AUCCGUUGGGCAUUGAAUGUU; sense: DNA at AGT, 2'-fluoro at CU, [invAb] at 5' end, 3' end, backbone not given here; antisense: sugars from the 5' end rrrfmffmmmfmffmmmfmmm, backbone not given here) | −9.2 ± 4.6% | 9 ± 8.9% |  | 
29983-DC: Bach1 siNA duplex, target site 363; sense B GAuuuGAAccuuuAAuucA TTB (SEQ 115); antisense UGAAuuAAAGGuucAAAucUU (SEQ 116) (sense GAUUUGAACCUUUAAUUCATT; antisense UGAAUUAAAGGUUCAAAUCUU; sense: DNA at AGT, 2'-fluoro at CU, [invAb] at 5' end, 3' end, backbone not given here; antisense: sugars from the 5' end rrrmffmmmmmfffmmmffmm, backbone not given here) | 74.7 ± 1.8% | 49 ± 2% |  | 
29985-DC: Bach1 siNA duplex, target site 1312; sense B AGGcuucuGGAGuGAcAuu TTB (SEQ 119); antisense AAUGucAcuccAGAAGccuUU (SEQ 120) (sense AGGCUUCUGGAGUGACAUUTT; antisense AAUGUCACUCCAGAAGCCUUU; sense: sugars from the 5' end dddfffffddddfrdfdffdd, [invAb] at 5' end, 3' end, backbone not given here; antisense: sugars from the 5' end rrrmffmffffmmmmmfffmm, backbone not given here) | 18.6 ± 6.5% | 1.3 ± 4.5% |  | 
29987-DC: Bach1 siNA duplex, target site 1313; sense B GGcuucuGGAGuGAcAuuu TTB (SEQ 123); antisense AAAuGucAcuccAGAAGccUU (SEQ 124) (sense GGCUUCUGGAGUGACAUUUTT; antisense AAAUGUCACUCCAGAAGCCUU; sense: DNA at AGT, 2'-fluoro at CU, [invAb] at 5' end, 3' end, backbone not given here; antisense: sugars from the 5' end rrrfmffmffffmmmmmffmm, backbone not given here) | 16 ± 0.2% | −16.1 ± 11.6% |  | 
CC1(C)CC[C@]2(C(=O)n3ccnc3)CC[C@]3(C)[C@H](C(=O)C=C4[C@@]5(C)C=C(C#N)C(=O)C(C)(C)[C@@H]5CC[C@]43C)[C@@H]2C1 [CDDO-Im] |  |  | significantly reduce | 
C[S+]([O-])CCCCN=C=S (centres unmarked) [Sulforaphane] |  |  |  | increased HO-1 protein expression
hemin |  |  |  | increased HO-1 protein expression
